# Reference: publication PMC6009943, “One-pot three-component synthesis of novel spirooxindoles with potential cytotoxic activity against triple-negative breast cancer MDA-MB-231 cells” (Journal of Enzyme Inhibition and Medicinal Chemistry, 2017)
# Read-outs that look alike come from different tables or passages of the source.
# Tests used:
# EGFR = target: T1, EGFR (Homo sapiens, UniProt P00533); test: EGFR kinase ELISA assay; type: biochemical; conditions: colorimetric ELISA, mean ± SD of three separate experiments
# T1 construct: purchased BPS Biosciences 40321
# T1 sequence (P00533 25-1210): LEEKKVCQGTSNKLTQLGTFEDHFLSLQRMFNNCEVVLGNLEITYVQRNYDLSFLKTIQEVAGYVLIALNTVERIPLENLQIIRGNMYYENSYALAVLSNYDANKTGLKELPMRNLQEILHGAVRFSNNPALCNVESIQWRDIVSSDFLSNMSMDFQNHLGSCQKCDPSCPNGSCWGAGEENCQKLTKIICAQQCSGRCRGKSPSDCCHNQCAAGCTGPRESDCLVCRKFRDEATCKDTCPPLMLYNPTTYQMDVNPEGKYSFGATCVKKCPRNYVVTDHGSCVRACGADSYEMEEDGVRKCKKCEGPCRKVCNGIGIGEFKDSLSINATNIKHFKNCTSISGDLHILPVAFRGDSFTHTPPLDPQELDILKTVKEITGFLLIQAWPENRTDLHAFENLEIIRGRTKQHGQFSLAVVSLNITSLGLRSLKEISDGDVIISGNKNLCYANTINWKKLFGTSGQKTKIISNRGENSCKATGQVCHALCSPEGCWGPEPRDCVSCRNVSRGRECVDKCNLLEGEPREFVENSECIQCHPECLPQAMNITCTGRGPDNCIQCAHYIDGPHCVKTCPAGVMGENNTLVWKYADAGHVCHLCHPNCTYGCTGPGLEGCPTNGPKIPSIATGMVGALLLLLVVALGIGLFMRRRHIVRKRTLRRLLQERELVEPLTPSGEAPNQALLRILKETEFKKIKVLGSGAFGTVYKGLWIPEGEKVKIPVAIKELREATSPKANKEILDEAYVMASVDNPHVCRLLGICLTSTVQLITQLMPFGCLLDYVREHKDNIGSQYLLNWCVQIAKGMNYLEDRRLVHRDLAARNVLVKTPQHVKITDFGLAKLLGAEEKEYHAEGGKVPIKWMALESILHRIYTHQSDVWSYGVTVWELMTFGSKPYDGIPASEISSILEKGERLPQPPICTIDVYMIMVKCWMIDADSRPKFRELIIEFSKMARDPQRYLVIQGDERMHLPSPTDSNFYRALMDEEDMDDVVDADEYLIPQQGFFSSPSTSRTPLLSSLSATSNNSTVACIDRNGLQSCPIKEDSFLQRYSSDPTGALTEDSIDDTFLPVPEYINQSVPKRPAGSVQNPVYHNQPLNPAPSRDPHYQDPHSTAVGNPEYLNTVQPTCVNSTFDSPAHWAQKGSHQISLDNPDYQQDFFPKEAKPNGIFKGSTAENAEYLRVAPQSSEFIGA
# Method: Percent inhibition was calculated by the comparison of compounds treated to control incubations.
# Erlotinib, a clinically used EGFR inhibitor, was taken as the reference drug.
# MDA-MB-231 cells = test: In vitro anti-proliferative activity assay (MTT); type: cell-based; conditions: Homo sapiens, 48 h incubation
# Method: Cells lines were maintained as monolayers in Dulbecco’s Modified Eagle’s Medium (DMEM) supplemented with 10% FBS, 2 mM L-glutamine, 100 U/ml penicillin and 100 µg/ml streptomycin sulfate. Cells were sub-cultured with trypsine/EDTA solution, counted with haemocytometer and plated onto 96-well plates (5000 cells/well) and left overnight to form a semi-confluent monolayer. […] DMSO (100 µl/well) was added to dissolve the formazan crystals with shaking for 10 min after which the absorbance was read at 590 nm against no cell blanks on a FLuo Star Optima microplate reader (BMG Technologies, Germany). Cell proliferation was calculated comparing the OD values of the DMSO control wells and those of the samples represented as % proliferation to the control.
# The in vitro anti-proliferative activity of the newly synthesized spirooxindoles 6a–p was examined against TNBC MDA-MB-231 cells. This assay was performed utilizing the 3–(4,5-dimethylthiazol-2-yl)-2,5-diphenyltetrazolium bromide (MTT) colorimetric assay as described by Mosmann[18]. Adriamycin was included in this assay as a reference drug.
# caspase-3 = test: Active caspase-3 level in MDA-MB-231 cells (ELISA); type: cell-based; conditions: MDA-MB-231 cells treated with compound at its IC50 concentration
# Method: (§1) The levels of the apoptotic markers (Bax, caspase-3) as well as the anti-apoptotic marker (Bcl-2) were assessed using ELISA colorimetric kits per the manufacturer’s protocol and referring to reported instructions[21]^,[22].
# Caspases, a family of cysteineaspartic proteases, are the crucial apoptosis mediators that provide essential links in cell regulatory networks controlling cell death. Caspase-3 is the key executioner caspase which modifies proteins ultimately responsible for apoptosis.
# Bcl-2 = Bcl-2 level in MDA-MB-231 cells (ELISA); type: cell-based; conditions: MDA-MB-231 cells treated with compound at its IC50 concentration
# Method: as §1
# (§2) Bcl-2 family comprises a group of crucial regulatory factors in apoptosis that finely tune the apoptotic switch on/off mechanism. Based on their functional and structural criteria, the members are divided into two major classes; group I proteins that are anti-apoptotic and group II proteins that are apoptotic. Group I anti-apoptotic proteins exert their function by inhibiting group II apoptotic proteins through simply binding to them. Group I proteins bind selectively to the active conformations of group II proteins to prevent them from being inserted into the mitochondria and thus cease the release of pro-apoptotic factors such as cytochrome c, ultimately aborting apoptosis. Thus, the inhibition of group I proteins and/or the activation of group II proteins can successfully induce apoptosis.
# WI-38 cells = test: In vitro cytotoxic activity, WI-38 cells (MTT); type: cell-based, human; conditions: for IC50: WI-38, MTT assay, human normal lung fibroblast cell line, read-out: IC50 (µM) WI-38; for Selectivity Index: WI-38 versus MDA-MB-231
# Method: WI-38 cells ([…]), were obtained from American Type Culture Collection. The cells were propagated in DMEM supplemented with 10% heat-inactivated FBS (Hyclone), 10 μg/ml of insulin (Sigma), and 1% penicillin-streptomycin. All of the other chemicals and reagents were from Sigma, or Invitrogen. Cytotoxicity was determined using MTT assay following a reported procedure.
# Bax = Bax level in MDA-MB-231 cells (ELISA); type: cell-based; conditions: MDA-MB-231 cells treated with compound at its IC50 concentration
# Method: as §1, §2
# [1] = tested on: MDA-MB-231 cancer cell line; conditions: cited from earlier work
SMILES,IC50 (EGFR) [µM],IC50 (MDA-MB-231 cells) [µM],melting point [°C],also measured
"N#CC1=C(c2ccccc2)Nc2c(c(-c3cccs3)nn2-c2ccccc2)C12C(=O)Nc1ccc(Br)cc12 (stereo not drawn) [Compound 6i, 5-Bromo-2-oxo-1',6'-diphenyl-3'-(thiophen-2-yl)-1',7'-dihydrospiro[indoline-3,4'-pyrazolo[3,4-b]pyridine]-5'-carbonitrile]",0.12 ± 0.01,6.7,,IC50 (WI-38 cells): 39.3 µM; Selectivity Index (WI-38 cells): 5.9
"COc1ccc(C2=C(C#N)C3(C(=O)Nc4ccc(Br)cc43)c3c(-c4cccs4)nn(-c4ccccc4)c3N2)cc1 (stereo not drawn) [Compound 6k, 5-Bromo-6'-(4-methoxyphenyl)-2-oxo-1'-phenyl-3'-(thiophen-2-yl)-1',7'-dihydrospiro[indoline-3,4'-pyrazolo[3,4-b]pyridine]-5'-carbonitrile]",0.31 ± 0.02,12.7,> 300,
"COc1ccc2c(c1)C1(C(=O)N2)C(C#N)=C(c2ccc(Cl)cc2)Nc2c1c(-c1cccs1)nn2-c1ccccc1 (stereo not drawn) [Compound 6p, 6'-(4-Chlorophenyl)-5-methoxy-2-oxo-1'-phenyl-3'-(thiophen-2-yl)-1',7'-dihydrospiro[indoline-3,4'-pyrazolo[3,4-b]pyridine]-5'-carbonitrile]",,> 50,255 to 257,
CC(C)OC(=O)C1=C(N)OC2=C(C(=O)OC2)C12C(=O)Nc1ccc(Cl)cc12 (stereo not drawn) [compound (i)],,,,"IC50 ([1]; read-out: IC50, cytotoxic activity against MDA-MB-231): 11 µM"
O=C(c1ccc(OCCN2CCCC2)cc1)C1C(c2ccccc2)C2CSC(c3ccccc3)N2C12C(=O)Nc1ccc(Cl)cc12 (stereo not drawn) [compound (iv)],,,,"IC50 ([1]; reported compound of Figure 1, reference not given, read-out: IC50, cytotoxicity against MDA-MB-231): 4.2 µM"

# More lines, main results first:
IC50 (EGFR) [µM],IC50 (MDA-MB-231 cells) [µM],melting point [°C],SMILES,also measured
0.43 ± 0.04,6.7,,"N#CC1=C(c2ccccc2)Nc2c(c(-c3cccs3)nn2-c2ccccc2)C12C(=O)Nc1ccccc12 (stereo not drawn) [Compound 6a, 2-Oxo-1',6'-diphenyl-3'-(thiophen-2-yl)-1',7'-dihydrospiro[indoline-3,4'-pyrazolo[3,4-b]pyridine]-5'-carbonitrile]","Caspase-3 (caspase-3): 0.3501 ng/mL; Bcl-2 (Bcl-2): 0.3958 ng/mL; Bcl-2, number of folds of control (Bcl-2): 0.147 folds; Bcl-2 expression compared to basal level in the control (Bcl-2): 14.7%; IC50 (WI-38 cells): 78.1 µM; Selectivity Index (WI-38 cells): 11.7; Bax (Bax): 405.5 pg/mL; Bax, number of folds of control (Bax): 506.8 folds"
0.36 ± 0.02,12,279 to 281,"N#CC1=C(c2ccc(Cl)cc2)Nc2c(c(-c3cccs3)nn2-c2ccccc2)C12C(=O)Nc1ccccc12 (stereo not drawn) [Compound 6d, 6'-(4-Chlorophenyl)-2-oxo-1'-phenyl-3'-(thiophen-2-yl)-1',7'-dihydrospiro[indoline-3,4'-pyrazolo[3,4-b]pyridine]-5'-carbonitrile]",
0.51 ± 0.04,13.5,282 to 284,"Cc1ccc(C2=C(C#N)C3(C(=O)Nc4ccc(Br)cc43)c3c(-c4cccs4)nn(-c4ccccc4)c3N2)cc1 (stereo not drawn) [Compound 6j, 5-Bromo-2-oxo-1'-phenyl-3'-(thiophen-2-yl)-6'-(p-tolyl)-1',7'-dihydrospiro[indoline-3,4'-pyrazolo[3,4-b]pyridine]-5'-carbonitrile]",
